From US20260306525A1, “COMBINATION THERAPY GLUCOCORTICOIDS AND GINSENOSIDE” (FYTAGORAS B.V., priority 2023, published 2026) come the findings set out here.

Common to all, as to type: in vivo, zebrafish (Danio rerio)
One assay relates to gr. The assay is described as follows: Gr transactivation activity in Tg(9xGCRE-HSV.UI23:EGFP)ia20 reporter larvae. The settings on record: for GFP fluorescence intensity (Gr transactivation): Example 2, 24 h, 3 dpf. As to the method:
To investigate the Gr transactivation activity in zebrafish larvae, the Tg(9xGCRE-HSV.UI23:EGFP)^ia20 reporter line was used, which expresses enhanced green fluorescent protein (EGFP) under the control of a promoter containing an array of nine GREs. […] The integrated intensity of the EGFP signal in the larvae was determined using ImageJ software.
To investigate the Gr transactivation activity in zebrafish larvae, the Tg(9xGCRE-HSV.UI23:EGFP^ia20) reporter line was used, which expresses enhanced green fluorescent protein (EGFP) under the control of a promoter containing an array of nine GREs. […] The integrated intensity of the EGFP signal in the larvae was determined using ImageJ software.

The test system of a further assay is mmp13. The assay is described as follows: qPCR mmp13 expression in zebrafish larvae. The note with it: Example 2, wounded larvae. The procedure: (§1) To determine mRNA levels of specific genes in zebrafish, 3 dpf larvae were used (wounded and non-wounded) and after 6 h of chemical treatments (2 h pre-wounding, 4 h post-wounding), as indicated. Per sample, groups of 15 larvae were collected in TRIzol reagent (Thermo Fisher Scientific, Waltham, MA, USA), and total RNA was isolated using the miRNeasy mini kit (Qiagen, Hilden, Germany). For similar experiments in Hela cells, cells were seeded in 6 well plates, and after 6 h of chemical treatment, the cells were removed from the wells using TRIzol reagent, and total RNA was isolated using the miRNeasy mini kit according to the manufacturer's instructions. The RNA samples were DNAse-treated utilizing the DNA-free™ DNA Removal Kit (Thermo Fisher Scientific). The cDNA synthesis was performed using the iScript cDNA synthesis kit (Bio-Rad Laboratories, Hercules, CA, USA) using 1 μg of RNA per sample. For the PCR reactions, 10 μM of forward and 10 μM of reverse primer, 12.5 μl of iQ SYBR Green Supermix (Bio-Rad), and 2 μl of cDNA were added to the qPCR reaction mixture. […] The reactions were performed on a MyiQ-single-color real-time PCR detection system (Bio-Rad Laboratories) with initial denaturation for 3 min at 95° C. and 40 cycles of 15 s at 95.5° C., 15 s at 60° C., and 30 s at 72° C. Cycle threshold values (Ct values, i.e. the cycle numbers at which a threshold value of the fluorescence intensity was reached) were determined for each sample. The gene expression level for each sample was normalized using the expression of ppial (peptidylprolyl isomerase Ab (cyclophilin A)) for zebrafish samples, 18S rRNA for human cells. The fold change per sample (compared to the respective control group) was calculated using the ΔΔCt method.
Background: In qPCR the cycle at which signal appears reflects the starting amount.

In another assay the test system is il8. The experiment in a line: qPCR il8 expression in zebrafish larvae. The settings on record: Example 2, wounded larvae. As to the method: as §1
The next assay has as its system fkbp5. The assay is described as follows: qPCR fkbp5 expression in zebrafish larvae. The settings on record: for fkbp5 expression, short-term treatment / fkbp5 expression, long-term treatment: beclomethasone 10 μM, Rg1 50 μM or combination; for fkbp5 expression, long-term treatment: 5 days. As to the method: (§2) […] Groups of 15 larvae were collected in TRIzol reagent (ThermoFisher) and total RNA was isolated using miRNeasy mini kit (Qiagen, Hilden, Germany). For experiments in HeLa cells, cells were seeded in 6 well plates and after treatment, the cells were removed from the wells using TRIzol reagent and mRNA was isolated using miRNeasy mini kit (Qiagen) according to the manufacturer's instructions. The RNA samples were DNAse-treated utilizing the DNA-free™ DNA Removal Kit (ThermoFisher Scientific). The cDNA synthesis was performed using the iScript cDNA synthesis kit (Bio-Rad Laboratories, Hercules, CA, USA) using 1 μg of RNA per sample. For qPCR, 10 μM of forward primer and 10 μM of reverse primer, 12.5 μl of IQ SYBR Green Supermix (Bio-Rad Laboratories), and 2 μl of cDNA were added to the qPCR reaction mixture. […] The qPCR reactions were performed on a MyiQ-single-color real-time PCR detection system (Bio-Rad Laboratories), with initial denaturation for 3 min, 95° C., and 40 cycles of 15 s at 95.5° C., 15 s at 60° C., and 30 s at 72° C. Cycle threshold values (Ct values, i.e. the cycle numbers at which a threshold value of the fluorescence intensity was reached) were determined for each sample. The gene expression level for each sample was normalized using the expression of ppial (peptidylprolyl isomerase Ab (cyclophilin A)) for zebrafish samples, and 18S rRNA for human cells. The fold change per sample (compared to the respective control group) was calculated using the […]Ct method.
as §1, with “To determine mRNA levels of specific genes in zebrafish, 3 dpf larvae were used (wounded and non-wounded) and after 6 h of chemical treatments (2 h pre-wounding, 4 h post-wounding), as indicated.” left out

For another assay, the system named is pck1. The experiment in a line: qPCR pck1 expression in zebrafish larvae. The settings on record: for pck1 expression, short-term treatment / pck1 expression, long-term treatment: 5 dpf, beclomethasone 10 μM, Rg1 50 μM or combination; for pck1 expression, long-term treatment: 5 days. The procedure: as §2
as §1, with “To determine mRNA levels of specific genes in zebrafish, 3 dpf larvae were used (wounded and non-wounded) and after 6 h of chemical treatments (2 h pre-wounding, 4 h post-wounding), as indicated.” left out

The next assay deals with nfkbiaa. The assay is described as follows: qPCR nfkbiaa expression in zebrafish larvae. The settings on record: for nfkbiaa expression: Example 2, 6 h treatment; for nfkbiaa expression, short-term treatment / nfkbiaa expression, long-term treatment: 5 dpf, beclomethasone 10 μM, Rg1 50 μM or combination; for nfkbiaa expression, short-term treatment: 6 h; for nfkbiaa expression, long-term treatment: 5 days. The procedure: as §2
as §1, with “To determine mRNA levels of specific genes in zebrafish, 3 dpf larvae were used (wounded and non-wounded) and after 6 h of chemical treatments (2 h pre-wounding, 4 h post-wounding), as indicated.” left out

Setting [1] is: 3 dpf, wounded larvae, 6 h, 10 μM beclomethasone, 50 μM Rg1 or combination.

For the molecule `CC(C)=CCC[C@](C)(O)[C@H]1CC[C@]2(C)[C@@H]1[C@H](O)C[C@@H]1[C@@]3(C)CC[C@H](O)C(C)(C)[C@@H]3[C@@H](O[C@@H]3O[C@H](CO)[C@@H](O)[C@H](O)[C@H]3O)C[C@]12C` [Rh1], in the assay on gr, the “GFP fluorescence intensity (Gr transactivation)” value (“GFP fluorescence intensity” for short) was “none of the ginsenosides PPT, F1, Rh1, and Rg1 altered the fluorescence intensity”. In addition, the mmp13 expression entry in the assay with mmp13 is “no effect”. Further, in the assay on il8, the il8 expression result is “no effect”. In the assay with fkbp5 (Example 2, 6 h treatment), the fkbp5 expression result is recorded as “did not increase the expression”. Moreover, the pck1 expression result in the assay with pck1 (Example 2, 6 h treatment) is “did not increase the expression”. Moreover, the nfkbiaa expression entry with nfkbiaa is “did not increase the expression”.

`CC(C)=CCC[C@](C)(O)[C@H]1CC[C@]2(C)[C@@H]1[C@H](O)C[C@@H]1[C@@]3(C)CC[C@H](O)C(C)(C)[C@@H]3[C@@H](O)C[C@]12C` [PPT, Protopanaxatriol]: the “GFP fluorescence intensity” value in the assay on gr was “none of the ginsenosides PPT, F1, Rh1, and Rg1 altered the fluorescence intensity”. The mmp13 expression result in the assay with mmp13 is “Only a minor effect”. In the assay on il8, the il8 expression result is reported as “Only a minor effect”. For the same molecule, in the assay with fkbp5 (Example 2, 6 h treatment), the fkbp5 expression result was “did not increase the expression”. In addition, the pck1 expression result in the assay on pck1 (Example 2, 6 h treatment) is reported as “did not increase the expression”. Also, in the assay with nfkbiaa, the nfkbiaa expression entry is listed as “did not increase the expression”.

`CC(C)=CCC[C@](C)(O[C@@H]1O[C@H](CO)[C@@H](O)[C@H](O)[C@H]1O)[C@H]1CC[C@]2(C)[C@@H]1[C@H](O)C[C@@H]1[C@@]3(C)CC[C@H](O)C(C)(C)[C@@H]3[C@@H](O)C[C@]12C` [F1]: in the assay on gr, the “GFP fluorescence intensity” value is “none of the ginsenosides PPT, F1, Rh1, and Rg1 altered the fluorescence intensity”. The mmp13 expression entry with mmp13 is on record as “Only a minor effect”. For the same molecule, in the assay with il8, the il8 expression entry was “Only a minor effect”. Further, in the assay on fkbp5 (Example 2, 6 h treatment), the fkbp5 expression entry is reported as “did not increase the expression”. Moreover, the pck1 expression result in the assay with pck1 (Example 2, 6 h treatment) was “did not increase the expression”. For the same molecule, in the assay on nfkbiaa, the nfkbiaa expression entry was “did not increase the expression”.

Take `CC(C)=CCC[C@](C)(O[C@@H]1O[C@H](CO)[C@@H](O)[C@H](O)[C@H]1O)[C@H]1CC[C@]2(C)[C@@H]1[C@H](O)C[C@@H]1[C@@]3(C)CC[C@H](O)C(C)(C)[C@@H]3[C@@H](O[C@@H]3O[C@H](CO)[C@@H](O)[C@H](O)[C@H]3O)C[C@]12C` [Rg1, (3β,6α, 12β)-3,12-Dihydroxydammar-24-ene-6,20-diyl bis-β-D-glucopyranoside]: the “relative EGFP intensity (Gr transactivation)” value in the assay with gr (24 h from 2 dpf, 10 μM GC, 50 μM Rg1 or combination) is “did not affect the EGFP signal”. In the assay on gr, the “GFP fluorescence intensity” value was “none of the ginsenosides PPT, F1, Rh1, and Rg1 altered the fluorescence intensity”. In the assay on mmp13, the mmp13 expression result is listed as “no effect”. The il8 expression entry with il8 is given as “no effect”. The fkbp5 expression entry with fkbp5 (setting [1]) is listed as “did not affect the expression of these genes”. Besides, the “fkbp5 expression, short-term treatment” value in the assay on fkbp5 (6 h) was “did not affect the expression of the genes”. Besides, the “fkbp5 expression, long-term treatment” value with fkbp5 is reported as “did not affect the expression of the genes”. Also, in the assay with fkbp5 (Example 2, 6 h treatment), the fkbp5 expression result is reported as “did not increase the expression”. In addition, the pck1 expression entry in the assay on pck1 (setting [1]) is given as “did not affect the expression of these genes”. Also, the “pck1 expression, short-term treatment” value with pck1 (6 h) is “did not affect the expression of the genes”. Further, the “pck1 expression, long-term treatment” value in the assay on pck1 is “did not affect the expression of the genes”. For the same molecule, in the assay on pck1 (Example 2, 6 h treatment), the pck1 expression result is reported as “did not increase the expression”. In the assay with nfkbiaa, the “nfkbiaa expression, short-term treatment” value is “did not affect the expression of the genes”; the “nfkbiaa expression, long-term treatment” value is given as “did not affect the expression of the genes”; the nfkbiaa expression result is reported as “did not increase the expression”.

In the case of `C[C@H]1C[C@H]2[C@@H]3CCC4=CC(=O)C=C[C@]4(C)[C@@]3(Cl)[C@@H](O)C[C@]2(C)[C@@]1(O)C(=O)CO` [beclomethasone, reference compound], the “GFP fluorescence intensity” value in the assay with gr is listed as “significant increase in the GFP signal throughout the body of the larvae”. Also, in the assay on fkbp5 (setting [1]), the fkbp5 expression entry is “upregulated the expression of pck1 and fkbp5”. Moreover, the “fkbp5 expression, short-term treatment” value with fkbp5 (6 h) was “upregulated the expression”. The “fkbp5 expression, long-term treatment” value with fkbp5 is given as “the upregulation of fkbp5 did not decrease”. Moreover, the pck1 expression result with pck1 (setting [1]) was “upregulated the expression of pck1 and fkbp5”. Also, the “pck1 expression, short-term treatment” value in the assay with pck1 (6 h) is reported as “upregulated the expression”. In addition, the “pck1 expression, long-term treatment” value in the assay on pck1 is “this upregulation of pck1 and nfkbiaa was significantly reduced after long-term treatment”. Also, in the assay on nfkbiaa, the “nfkbiaa expression, short-term treatment” value was “upregulated the expression”; the “nfkbiaa expression, long-term treatment” value was “this upregulation of pck1 and nfkbiaa was significantly reduced after long-term treatment”.
